Values of other authors in patent publication US8347551B2, “Method of applying pesticides” (priority 2004, dated 2013).
Like-named read-outs stand apart in the source and are kept apart here.

Legend:
[1] = system: pest; conditions: seed treatment; dose giving sufficient control of the pest; dutch registration code no. 11492
[2] = system: pest; conditions: seed treatment; dose giving sufficient control of the pest; dutch registration code no. 8928
[3] = system: pest; conditions: seed treatment, dose giving sufficient control of the pest
[4] = system: pest; conditions: seed treatment; dose giving sufficient control of the pest; dutch registration code no. 11455
[5] = system: pest; conditions: seed treatment; dose giving sufficient control of the pest; dutch registration code no. 8672

In the case of `CN(C)C(=S)SSC(=S)N(C)C` [thiram], the “Effective Dose” value [1] is listed as 1.6 g per kg radish seeds.
In the case of `CC(C)NC(=O)N1CC(=O)N(c2cc(Cl)cc(Cl)c2)C1=O` [iprodione], the “Effective Dose” value [2] is given as 5 g per kg carrot seeds.
For `CCOP(=S)(OCC)Oc1nc(Cl)c(Cl)cc1Cl` [chlorpyriphos], the “Effective Dose” value ([3]; dutch registration code no. 10968) is listed as 0.096 g per 1000 brassica seeds.
For `O=[N+]([O-])NC1=NCCN1Cc1ccc(Cl)nc1` [imidacloprid], the “Effective Dose” value [4] is given as 0.8 g per 1000 lettuce seeds.
For `COCC(=O)N(c1c(C)cccc1C)[C@H](C)C(=O)OC` [metalaxyl-m], the “Effective Dose” value ([3]; dutch registration code no. 12280) is given as 0.175 g per kg brassica seeds.
For `COC(=O)Nc1nc2ccccc2[nH]1` [carbendazim], the “Effective Dose” value [5] is given as 1 g per kg onion seeds.
